Patent US20210205264A1, “USE OF DELTA-TOCOTRIENOL FOR TREATING CANCER” (H. LEE MOFFITT CANCER CENTER & RESEARCH INSTITUTE INC., priority 2018, published 2021)

Tests used:
[1] = test system: intestinal stem cells of ApcMin/+ mice; experiment: Caspase 3 staining of intestinal crypts in ApcMin/+ mice; assay type: in vivo; conditions: small intestinal crypts of ApcMin/+ mice
Text: Although substantial preclinical evidence exists regarding the preventive activity of d-T3 and g-T3 in various types of cancers, there is no report of d-T3 prevention of colon cancer despite evidence of activity in colon cell lines and xenograft models. […] Treatment with aspirin alone reduced adenoma formation by 38%, and treatment with d-T3 alone reduced adenoma formation by 44%, while treatment with the combination of aspirin and d-T3 reduced adenoma formation by 58%.

[2] = test system: AOM induced rat colon cancer model; experiment: AOM induced rat colon cancer model; assay type: in vivo, Fisher 344 rat
Text: FIGS. 3A, 3B, 3C and 3D show the number of polyps (FIG. 3A) and cancer (FIG. 3C) with H&E stain of representative areas of polyp (FIG. 3B) and cancer (FIG. 3D) following no treatment (NT), treatment with vehicle (V), sulindac, and d-T3 in AOM-induced Fisher 344 rat model of colon carcinogenesis.
To confirm the CRC prevention activity of d-T3, the activity of d-T3 was investigated and compared this with sulindac, another established NSAID with chemoprevention activity against CRC in the AOM induced rat colon cancer model.

[3] = test system: colon cancer stem cells (CCSC); experiment: d-T3 IC50 in colon cancer stem cells; assay type: cell-based, human; conditions: 5 days treatment, daily fresh media change
[4] = test system: Oct4, Nanog, Sox2, KLF4, c-myc, c-PARP; experiment: Western blot of stem cell transcription factors and c-PARP in CCSCs; assay type: cell-based, human
CCSCs = experiment: Annexin V FITC/PI flow cytometry apoptosis assay in CCSCs; assay type: cell-based, human; conditions: 24 hours; d-T3 50 μM, aspirin 5 mM
Description: (§1) FIGS. 10A, 10B, 10C, and 10D show induction of apoptosis measured by flow cytometry (FIG. 10A) and confocal microscopy (FIG. 10B) in CCSCs after treatment with vehicle, aspirin, d-T3, and aspirin+d-T3. Effect of BID inhibitor on apoptosis in CCSCs after treatment with aspirin or d-T3 (FIG. 10C). Induction oft-BID in CCSCs after treatment with vehicle, aspirin, d-T3, and aspirin+d-T3 (FIG. 10D).
(§2) d-T3 can induce selective killing of CCSCs through the BH3 interacting-domain death agonist (BID). […] It should be noted that these in vitro results are consistent with the in vivo observation of the selective induction of apoptosis in APC mutant colon crypt cells in the ApcMin/+ mice but not in the normal intestinal cells of the AOM rat CRC model or NOD/SCID mice. […] Although the proapoptotic activity of d-T3 is a consistent observation of d-T3 anticancer activity in all of the published reports, the mechanism by which d-T3 induces apoptosis is poorly understood. Apoptotic death is regulated by the death receptor (extrinsic) and mitochondrial (intrinsic) pathways. These 2 pathways crosstalk under certain conditions through caspase-8-mediated cleavage of BID, a BH3-only Bcl-2 family member. The activated and truncated BID (tBID) then engages the intrinsic pathway for efficient apoptosis induction. To obtain preliminary information regarding the mechanisms by which d-T3 induces apoptosis in CCSCs, the activation of BID was measured after 24-hour treatment with vehicle, aspirin (5 mM), d-T3 (50 μM), and aspirin combined with d-T3 in CCSCs by Western blotting.

HCT-116 = experiment: Apoptosis induction in HCT-116; assay type: cell-based, human
SW-620 = experiment: Apoptosis induction in SW-620; assay type: cell-based, human
BID = experiment: Activation of BID (tBID) by Western blotting in CCSCs; assay type: cell-based, human; conditions: 24-hour treatment; aspirin 5 mM, d-T3 50 μM
Description: as §1
as §2, with “These 2 pathways crosstalk under certain conditions through caspase-8-mediated cleavage of BID, a BH3-only Bcl-2 family member. The activated and truncated BID (tBID) then engages the intrinsic pathway for efficient apoptosis induction.” left out

hCAS = molecular target: T1, hCAS (Homo sapiens, UniProt P55060); experiment: hCAS protein levels in MiaPaCa-2 cells; assay type: cell-based
T1 construct: endogenous in cells; host or cells: MiaPaCa-2 human pancreatic cancer cells
T1 sequence (P55060 1-971): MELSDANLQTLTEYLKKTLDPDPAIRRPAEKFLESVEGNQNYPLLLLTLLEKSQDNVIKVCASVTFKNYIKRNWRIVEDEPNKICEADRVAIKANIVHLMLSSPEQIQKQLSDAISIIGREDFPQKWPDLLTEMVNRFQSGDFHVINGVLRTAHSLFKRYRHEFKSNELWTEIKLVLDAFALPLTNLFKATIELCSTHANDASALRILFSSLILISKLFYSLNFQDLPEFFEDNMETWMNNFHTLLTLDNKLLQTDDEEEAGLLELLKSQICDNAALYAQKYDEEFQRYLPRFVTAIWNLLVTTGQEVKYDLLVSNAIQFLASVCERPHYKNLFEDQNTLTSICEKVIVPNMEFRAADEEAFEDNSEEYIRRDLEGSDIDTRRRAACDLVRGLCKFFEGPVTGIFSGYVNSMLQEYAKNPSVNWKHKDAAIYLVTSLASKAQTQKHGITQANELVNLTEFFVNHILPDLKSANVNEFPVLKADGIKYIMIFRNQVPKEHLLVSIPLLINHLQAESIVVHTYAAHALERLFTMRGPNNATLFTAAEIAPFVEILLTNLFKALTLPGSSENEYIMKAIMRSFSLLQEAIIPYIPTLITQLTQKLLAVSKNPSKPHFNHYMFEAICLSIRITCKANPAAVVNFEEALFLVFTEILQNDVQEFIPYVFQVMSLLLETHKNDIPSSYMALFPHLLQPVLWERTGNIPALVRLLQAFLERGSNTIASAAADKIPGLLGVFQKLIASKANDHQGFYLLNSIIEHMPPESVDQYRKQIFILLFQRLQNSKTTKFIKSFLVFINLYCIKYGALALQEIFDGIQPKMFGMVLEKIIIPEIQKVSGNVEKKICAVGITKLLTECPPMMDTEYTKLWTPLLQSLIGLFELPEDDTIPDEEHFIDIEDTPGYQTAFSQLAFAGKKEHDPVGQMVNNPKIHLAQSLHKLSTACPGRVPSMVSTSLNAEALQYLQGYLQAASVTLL

HPNE cells = experiment: Anchorage-independent growth / colony formation of HPNE cells over-expressing hCAS; assay type: cell-based; conditions: d-T3 concentration escalation

CC(C)=CCC/C(C)=C/CC/C(C)=C/CC[C@]1(C)CCc2cc(O)cc(C)c2O1 [d-T3, δ-tocotrienol]
apoptosis detected by caspase 3 staining [1]: markedly induced apoptosis | cancer formation [2]: almost completely blocked | formation of intestinal polyps [2]: significantly inhibited | IC50 [3]: 5 µM | expression of Oct4, Nanog, Sox2, KLF4, and c-myc [4]: downregulation | expression of c-PARP [4]: upregulation | induction of apoptosis (CCSCs): much more effective than aspirin | apoptosis (HCT-116): significantly induced apoptosis | apoptosis (SW-620): significantly induced apoptosis | activation of tBID (BID): significantly activated | time at which decrease of hCAS levels starts (hCAS): 6 h | time of maximum effect on hCAS levels (hCAS): 24 to 48 h | hCAS levels (hCAS; d-T3 50 uM): decreases the hCAS levels | dose response on growth / colony formation (HPNE cells): potent dose-dependent effect | dose response on growth / colony formation (HPNE cells; listed as δ-T3): robust dose-response
